Data taken from ChEMBL document CHEMBL3885881, “DrugMatrix”.

Organism: Rattus norvegicus
Assay: DrugMatrix - Regimen: Daily Repeat
Assay type: toxicity, organism-based, Sprague-Dawley
Design: regimen Daily Repeat, gender Male, age 6-8 weeks
Settings: in vivo, po, route oral GAVAGE, vehicle 100 % WATER; for ABSOLUTE BASOPHIL / ABSOLUTE EOSINOPHIL / ABSOLUTE LYMPHOCYTE / ABSOLUTE MONOCYTE / ABSOLUTE SEGMENTED NEUTROPHIL / BASOPHIL / EOSINOPHIL / ERYTHROCYTE COUNT / HEMATOCRIT / HEMOGLOBIN / LEUKOCYTE COUNT / LYMPHOCYTE / MEAN CORPUSCULAR HEMOGLOBIN / MEAN CORPUSCULAR HEMOGLOBIN CONCENTRATION / MEAN CORPUSCULAR VOLUME / MONOCYTE / NEUTROPHIL / NUCLEATED RED BLOOD CELLS / PLATELET COUNT: tissue Blood; for ALANINE AMINOTRANSFERASE / ALBUMIN / ALKALINE PHOSPHATASE / ASPARTATE AMINOTRANSFERASE / BLOOD UREA NITROGEN / CARBON DIOXIDE / CHLORIDE / CHOLESTEROL / CREATINE PHOSPHOKINASE / CREATININE / GLUCOSE / LACTATE DEHYDROGENASE / LIPASE / PHOSPHORUS / POTASSIUM / SODIUM / TOTAL BILIRUBIN / TOTAL PROTEIN / URIC ACID: tissue Plasma
[1] = 300 mg/kg, 72 h, dose level Low, time 3 day
[2] = 300 mg/kg, 120 h, dose level Low, time 5 day
[3] = 1100 mg/kg, 72 h, dose level High, time 3 day
[4] = 1100 mg/kg, 120 h, dose level High, time 5 day

For `O=C(O)CCNC(=O)c1ccc(/N=N/c2ccc(O)c(C(=O)O)c2)cc1` [BALSALAZIDE], the “ABSOLUTE BASOPHIL” value [1] was 0 CELLS/uL, the “ABSOLUTE EOSINOPHIL” value [1] was 0 CELLS/uL and the “ABSOLUTE LYMPHOCYTE” value [1] was 11801 CELLS/uL. For the same compound, the “ABSOLUTE MONOCYTE” value [1] was 66 CELLS/uL, the “ABSOLUTE SEGMENTED NEUTROPHIL” value [1] was 833 CELLS/uL and the BASOPHIL [1] was 0%. The EOSINOPHIL [1] was 0%, the “ERYTHROCYTE COUNT” value [1] was 5.38 x10E6/uL and the HEMATOCRIT [1] was 33.73%. For the same compound, the HEMOGLOBIN [1] was 13.5 G/DL, the “LEUKOCYTE COUNT” value [1] was 12.7 x10E3/uL and the LYMPHOCYTE [1] was 93.33%. For the same compound, the “MEAN CORPUSCULAR HEMOGLOBIN” value [1] was 25.13 pg, the “MEAN CORPUSCULAR HEMOGLOBIN CONCENTRATION” value [1] was 40.03 G/DL and the “MEAN CORPUSCULAR VOLUME” value [1] was 62.7 fL. The MONOCYTE [1] was 0.33%, the NEUTROPHIL [1] was 6.33% and the “NUCLEATED RED BLOOD CELLS” value [1] was 0 /100WBC. The “PLATELET COUNT” value [1] was 922 x10E3/uL, the “ALANINE AMINOTRANSFERASE” value [1] was 56.33 u/L and the ALBUMIN [1] was 4.23 G/DL. For the same compound, the “ALKALINE PHOSPHATASE” value [1] was 481.33 u/L, the “ASPARTATE AMINOTRANSFERASE” value [1] was 94 u/L and the “BLOOD UREA NITROGEN” value [1] was 17.33 mg/dL. For the same compound, the “CARBON DIOXIDE” value [1] was 29 mmol/L, the CHLORIDE [1] was 103.67 MEQ/L and the CHOLESTEROL [1] was 73.33 mg/dL. The “CREATINE PHOSPHOKINASE” value [1] was 306.67 u/L, the CREATININE [1] was 0.22 mg/dL and the GLUCOSE [1] was 159.33 mg/dL. For the same compound, the “LACTATE DEHYDROGENASE” value [1] was 328 u/L, the LIPASE [1] was 8 u/L and the PHOSPHORUS [1] was 13.87 mg/dL. The POTASSIUM [1] was 6.3 MEQ/L, the SODIUM [1] was 144.33 MEQ/L and the “TOTAL BILIRUBIN” value [1] was 0.2 mg/dL. For the same compound, the “TOTAL PROTEIN” value [1] was 5.93 G/DL, the “URIC ACID” value [1] was 1.5 mg/dL and the “ABSOLUTE BASOPHIL” value [2] was 0 CELLS/uL. For the same compound, the “ABSOLUTE EOSINOPHIL” value [2] was 53.33 CELLS/uL, the “ABSOLUTE LYMPHOCYTE” value [2] was 8092.67 CELLS/uL and the “ABSOLUTE MONOCYTE” value [2] was 26.67 CELLS/uL. For the same compound, the “ABSOLUTE SEGMENTED NEUTROPHIL” value [2] was 694 CELLS/uL, the BASOPHIL [2] was 0% and the EOSINOPHIL [2] was 0.67%. The “ERYTHROCYTE COUNT” value [2] was 5.99 x10E6/uL, the HEMATOCRIT [2] was 38.2% and the HEMOGLOBIN [2] was 14.6 G/DL. The “LEUKOCYTE COUNT” value [2] was 8.87 x10E3/uL, the LYMPHOCYTE [2] was 91% and the “MEAN CORPUSCULAR HEMOGLOBIN” value [2] was 24.43 pg. For the same compound, the “MEAN CORPUSCULAR HEMOGLOBIN CONCENTRATION” value [2] was 38.2 G/DL, the “MEAN CORPUSCULAR VOLUME” value [2] was 63.9 fL and the MONOCYTE [2] was 0.33%. For the same compound, the NEUTROPHIL [2] was 8%, the “NUCLEATED RED BLOOD CELLS” value [2] was 0 /100WBC and the “PLATELET COUNT” value [2] was 965 x10E3/uL. The “ALANINE AMINOTRANSFERASE” value [2] was 61.67 u/L, the ALBUMIN [2] was 4.17 G/DL and the “ALKALINE PHOSPHATASE” value [2] was 384.67 u/L. The “ASPARTATE AMINOTRANSFERASE” value [2] was 83.67 u/L, the “BLOOD UREA NITROGEN” value [2] was 17.67 mg/dL and the “CARBON DIOXIDE” value [2] was 28.67 mmol/L. For the same compound, the CHLORIDE [2] was 102 MEQ/L, the CHOLESTEROL [2] was 63.33 mg/dL and the “CREATINE PHOSPHOKINASE” value [2] was 238.33 u/L. The CREATININE [2] was 0.22 mg/dL, the GLUCOSE [2] was 182.67 mg/dL and the “LACTATE DEHYDROGENASE” value [2] was 142.67 u/L. It also gave an LIPASE [2] of 12.33 u/L, a PHOSPHORUS [2] of 14.5 mg/dL and a POTASSIUM [2] of 6.43 MEQ/L. The SODIUM [2] was 146.73 MEQ/L, the “TOTAL BILIRUBIN” value [2] was 0.2 mg/dL and the “TOTAL PROTEIN” value [2] was 6.07 G/DL. The “URIC ACID” value [2] was 2.17 mg/dL, the “ABSOLUTE BASOPHIL” value [3] was 0 CELLS/uL and the “ABSOLUTE EOSINOPHIL” value [3] was 0 CELLS/uL. The “ABSOLUTE LYMPHOCYTE” value [3] was 7596 CELLS/uL, the “ABSOLUTE MONOCYTE” value [3] was 55 CELLS/uL and the “ABSOLUTE SEGMENTED NEUTROPHIL” value [3] was 682.33 CELLS/uL. For the same compound, the BASOPHIL [3] was 0%, the EOSINOPHIL [3] was 0% and the “ERYTHROCYTE COUNT” value [3] was 5.29 x10E6/uL. For the same compound, the HEMATOCRIT [3] was 33.57%, the HEMOGLOBIN [3] was 13.27 G/DL and the “LEUKOCYTE COUNT” value [3] was 8.33 x10E3/uL. For the same compound, the LYMPHOCYTE [3] was 91.33%, the “MEAN CORPUSCULAR HEMOGLOBIN” value [3] was 25.13 pg and the “MEAN CORPUSCULAR HEMOGLOBIN CONCENTRATION” value [3] was 39.5 G/DL. For the same compound, the “MEAN CORPUSCULAR VOLUME” value [3] was 63.47 fL, the MONOCYTE [3] was 0.67% and the NEUTROPHIL [3] was 8%. For the same compound, the “NUCLEATED RED BLOOD CELLS” value [3] was 0 /100WBC, the “PLATELET COUNT” value [3] was 833.67 x10E3/uL and the “ALANINE AMINOTRANSFERASE” value [3] was 62.67 u/L. For the same compound, the ALBUMIN [3] was 4.33 G/DL, the “ALKALINE PHOSPHATASE” value [3] was 344.33 u/L and the “ASPARTATE AMINOTRANSFERASE” value [3] was 98.67 u/L. For the same compound, the “BLOOD UREA NITROGEN” value [3] was 15 mg/dL, the “CARBON DIOXIDE” value [3] was 32.67 mmol/L and the CHLORIDE [3] was 101.67 MEQ/L. The CHOLESTEROL [3] was 84.33 mg/dL, the “CREATINE PHOSPHOKINASE” value [3] was 333 u/L and the CREATININE [3] was 0.49 mg/dL. The GLUCOSE [3] was 160.33 mg/dL, the “LACTATE DEHYDROGENASE” value [3] was 159 u/L and the LIPASE [3] was 12 u/L. The PHOSPHORUS [3] was 11.9 mg/dL, the POTASSIUM [3] was 5.97 MEQ/L and the SODIUM [3] was 145.53 MEQ/L. The “TOTAL BILIRUBIN” value [3] was 0.27 mg/dL, the “TOTAL PROTEIN” value [3] was 6.1 G/DL and the “URIC ACID” value [3] was 0.67 mg/dL. For the same compound, the “ABSOLUTE BASOPHIL” value [4] was 0 CELLS/uL, the “ABSOLUTE EOSINOPHIL” value [4] was 0 CELLS/uL and the “ABSOLUTE LYMPHOCYTE” value [4] was 12609 CELLS/uL. For the same compound, the “ABSOLUTE MONOCYTE” value [4] was 37.67 CELLS/uL, the “ABSOLUTE SEGMENTED NEUTROPHIL” value [4] was 1253.33 CELLS/uL and the BASOPHIL [4] was 0%. For the same compound, the EOSINOPHIL [4] was 0%, the “ERYTHROCYTE COUNT” value [4] was 5.68 x10E6/uL and the HEMATOCRIT [4] was 35.73%. For the same compound, the HEMOGLOBIN [4] was 14.1 G/DL, the “LEUKOCYTE COUNT” value [4] was 13.9 x10E3/uL and the LYMPHOCYTE [4] was 91.33%. For the same compound, the “MEAN CORPUSCULAR HEMOGLOBIN” value [4] was 24.87 pg, the “MEAN CORPUSCULAR HEMOGLOBIN CONCENTRATION” value [4] was 39.47 G/DL and the “MEAN CORPUSCULAR VOLUME” value [4] was 62.93 fL. The MONOCYTE [4] was 0.33%, the NEUTROPHIL [4] was 8.33% and the “NUCLEATED RED BLOOD CELLS” value [4] was 0 /100WBC. For the same compound, the “PLATELET COUNT” value [4] was 1338 x10E3/uL, the “ALANINE AMINOTRANSFERASE” value [4] was 55.33 u/L and the ALBUMIN [4] was 4 G/DL. The “ALKALINE PHOSPHATASE” value [4] was 346.67 u/L, the “ASPARTATE AMINOTRANSFERASE” value [4] was 106 u/L and the “BLOOD UREA NITROGEN” value [4] was 17.67 mg/dL. The “CARBON DIOXIDE” value [4] was 27 mmol/L, the CHLORIDE [4] was 104 MEQ/L and the CHOLESTEROL [4] was 55.33 mg/dL. For the same compound, the “CREATINE PHOSPHOKINASE” value [4] was 414 u/L, the CREATININE [4] was 0.14 mg/dL and the GLUCOSE [4] was 163.67 mg/dL. The “LACTATE DEHYDROGENASE” value [4] was 452.33 u/L, the LIPASE [4] was 10 u/L and the PHOSPHORUS [4] was 12.77 mg/dL. The POTASSIUM [4] was 6.29 MEQ/L, the SODIUM [4] was 144.53 MEQ/L and the “TOTAL BILIRUBIN” value [4] was 0.17 mg/dL. For the same compound, the “TOTAL PROTEIN” value [4] was 5.57 G/DL and the “URIC ACID” value [4] was 1.53 mg/dL.
